# From PubChem BioAssay AID328 (DTP/NCI, 2004)
# “And” between values parts separate entries of the source, which are not always exact repeats. Equal values may be shown once. Toxic doses and inconclusive results are not listed.
# Tested on: BDF1 mice, P388 leukemia ip, median survival T/C
# Experiment: NCI In Vivo Anticancer Drug Screen. Data for tumor model P388 Leukemia (intraperitoneal) in B6D2F1 (BDF1) mice
# Details: endpoint: median survival time, higher = longer survival
# Outline: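 Transplantable tumour in mice; compound vs vehicle dosing; survival scored; ratio of treated to control reported.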
# [1] = dose: 2.5 mg/kg/injection, schedule: Q01DX010 (ip), vehicle: saline
# [2] = dose: 5.0 mg/kg/injection, schedule: Q01DX010 (ip), vehicle: saline
# [3] = dose: 10.0 mg/kg/injection, schedule: Q01DX010 (ip), vehicle: saline
# [4] = dose: 25.0 mg/kg/injection, schedule: Q01DX009 (ip), vehicle: saline
# [5] = dose: 25.0 mg/kg/injection, schedule: Q04DX003 (ip), vehicle: saline
# [6] = dose: 50.0 mg/kg/injection, schedule: Q01DX009 (ip), vehicle: saline
# [7] = dose: 50.0 mg/kg/injection, schedule: Q04DX003 (ip), vehicle: saline
# [8] = dose: 400.0 mg/kg/injection, schedule: Q04DX003 (ip), vehicle: saline
# [9] = dose: 12.5 mg/kg/injection, schedule: Q04DX003 (ip), vehicle: saline with Tween-80
# [10] = dose: 100.0 mg/kg/injection, schedule: Q01DX009 (ip), vehicle: Klucel (hydroxypropylcellulose) (HPC)
compound,measurement,setting,value
O=Nc1c(N=O)c(N=O)c(N=O)c(N=O)c1N=O,T/C,"dose: 1.25 mg/kg/injection, schedule: Q01DX010 (ip), vehicle: saline",90 % of control
same,T/C,[1],100 % of control
same,T/C,[2],100 % of control
same,T/C,[3],95 % of control
same,T/C,"dose: 80.0 mg/kg/injection, schedule: Q01DX010 (ip), vehicle: saline",104 % of control
C(=N/NC1=NCCN1)/c1c2ccccc2c(/C=N\NC2=NCCN2)c2ccccc12,T/C,"dose: 1.56 mg/kg/injection, schedule: Q04DX002 (ip), vehicle: saline",209 % of control
same,T/C,"dose: 3.12 mg/kg/injection, schedule: Q04DX002 (ip), vehicle: saline",229 % of control
same,T/C,"dose: 6.25 mg/kg/injection, schedule: Q04DX002 (ip), vehicle: saline",239 % of control
same,T/C,"dose: 12.5 mg/kg/injection, schedule: Q04DX002 (ip), vehicle: saline",209 % of control
same,T/C,"dose: 25.0 mg/kg/injection, schedule: Q04DX002 (ip), vehicle: saline",229 % of control
same,T/C,"dose: 50.0 mg/kg/injection, schedule: Q04DX002 (ip), vehicle: saline",280 % of control
O=C1C=C(Nc2ccc(F)cc2)C(Nc2ccc(F)cc2)=CC1=O,T/C,"dose: 87.5 mg/kg/injection, schedule: Q01DX009 (ip), vehicle: saline with Tween-80",87 % of control
same,T/C,"dose: 350.0 mg/kg/injection, schedule: Q01DX009 (ip), vehicle: saline with Tween-80",91 % of control
O=C(c1cc(Cl)cc(Cl)c1)N1CC1,T/C,[4],106 % of control
same,T/C,[5],100 % of control
same,T/C,[6],113 % of control
same,T/C,[7],100 % of control
same,T/C,"dose: 100.0 mg/kg/injection, schedule: Q01DX009 (ip), vehicle: saline",103 % of control
same,T/C,"dose: 100.0 mg/kg/injection, schedule: Q04DX003 (ip), vehicle: saline",98 % of control
same,T/C,"dose: 200.0 mg/kg/injection, schedule: Q01DX009 (ip), vehicle: saline",113 % of control
same,T/C,"dose: 200.0 mg/kg/injection, schedule: Q04DX003 (ip), vehicle: saline",114 % of control
same,T/C,"dose: 400.0 mg/kg/injection, schedule: Q01DX009 (ip), vehicle: saline",113 % of control
same,T/C,[8],106 % of control
COc1cccc(CCCC(=O)C(C)(C)S(C)=O)c1 (configuration not stated),T/C,"dose: 50.0 mg/kg/injection, schedule: Q01DX009 (ip), vehicle: saline with Tween-80",103 % of control
same,T/C,"dose: 100.0 mg/kg/injection, schedule: Q01DX009 (ip), vehicle: saline with Tween-80",95 % of control
same,T/C,"dose: 200.0 mg/kg/injection, schedule: Q01DX009 (ip), vehicle: saline with Tween-80",103 % of control
CCOC(=O)C(=O)C1CCNC1=O (configuration not stated),T/C,[9],100 % of control
same,T/C,"dose: 25.0 mg/kg/injection, schedule: Q04DX003 (ip), vehicle: saline with Tween-80",100 % of control
same,T/C,"dose: 50.0 mg/kg/injection, schedule: Q04DX003 (ip), vehicle: saline with Tween-80",100 % of control
COC(=O)/C=C/CBr,T/C,[1],110 % of control
same,T/C,[2],110 % of control
same,T/C,[3],110 % of control
same,T/C,"dose: 20.0 mg/kg/injection, schedule: Q01DX010 (ip), vehicle: saline",115 % of control
O=C(C[n+]1cc2ccccc2c2ccccc21)c1ccccc1,T/C,"dose: 25.0 mg/kg/injection, schedule: Q01DX009 (ip), vehicle: Klucel (hydroxypropylcellulose) (HPC)",104 % of control
same,T/C,"dose: 35.0 mg/kg/injection, schedule: Q01DX009 (ip), vehicle: Klucel (hydroxypropylcellulose) (HPC)",100 % of control and 108 % of control
same,T/C,"dose: 50.0 mg/kg/injection, schedule: Q01DX009 (ip), vehicle: Klucel (hydroxypropylcellulose) (HPC)",100 % of control and 120 % of control
same,T/C,"dose: 75.0 mg/kg/injection, schedule: Q01DX009 (ip), vehicle: Klucel (hydroxypropylcellulose) (HPC)",115 % of control
same,T/C,[10],114 % of control
O=NN(CCCl)C(=O)Nc1ccccc1,T/C,"dose: 8.0 mg/kg/injection, schedule: Q04DX003 (ip), vehicle: saline with Tween-80",233 % of control
same,T/C,"dose: 8.25 mg/kg/injection, schedule: Q04DX003 (ip), vehicle: saline with Tween-80",231 % of control
same,T/C,"dose: 12.0 mg/kg/injection, schedule: Q04DX003 (ip), vehicle: saline with Tween-80",311 % of control
same,T/C,[9],272 % of control
same,T/C,"dose: 18.0 mg/kg/injection, schedule: Q04DX003 (ip), vehicle: saline with Tween-80",261 % of control
same,T/C,"dose: 18.75 mg/kg/injection, schedule: Q04DX003 (ip), vehicle: saline with Tween-80",104 % of control
COc1cc2c(cc1OC)C(C)=NCC2,T/C,"dose: 3.0 mg/kg/injection, schedule: Q01DX001 (ip), vehicle: saline",104 % of control
same,T/C,"dose: 6.0 mg/kg/injection, schedule: Q01DX001 (ip), vehicle: saline",104 % of control
same,T/C,"dose: 12.0 mg/kg/injection, schedule: Q01DX001 (ip), vehicle: saline",108 % of control
same,T/C,"dose: 12.0 mg/kg/injection, schedule: Q01DX009 (ip), vehicle: saline",100 % of control
same,T/C,"dose: 12.0 mg/kg/injection, schedule: Q04DX003 (ip), vehicle: saline",95 % of control
same,T/C,"dose: 25.0 mg/kg/injection, schedule: Q01DX001 (ip), vehicle: saline",104 % of control
same,T/C,[4],100 % of control
same,T/C,[5],104 % of control
same,T/C,"dose: 50.0 mg/kg/injection, schedule: Q01DX001 (ip), vehicle: saline",108 % of control
same,T/C,[6],95 % of control
same,T/C,[7],100 % of control
C1OC1CO[C@H]1CO[C@H]2[C@@H]1OC[C@H]2OCC1CO1 (some centres not stated),T/C,"dose: 264.0 mg/kg/injection, schedule: Q04DX003 (ip), vehicle: saline",160 % of control and 168 % of control
same,T/C,[8],180 % of control
COc1cc(Br)cc(/C=C/[N+](=O)[O-])c1OC,T/C,"dose: 6.25 mg/kg/injection, schedule: Q01DX009 (ip), vehicle: saline with Tween-80",113 % of control
same,T/C,"dose: 12.5 mg/kg/injection, schedule: Q01DX009 (ip), vehicle: saline with Tween-80",118 % of control
same,T/C,"dose: 25.0 mg/kg/injection, schedule: Q01DX009 (ip), vehicle: saline with Tween-80",109 % of control
COc1ccc(-c2nc3c(=O)n(C)c(=O)n(C)c3nc2-c2ccc(OC)cc2)cc1,T/C,"dose: 100.0 mg/kg/injection, schedule: Q04DX002 (ip), vehicle: saline with Tween-80",104 % of control
same,T/C,"dose: 200.0 mg/kg/injection, schedule: Q04DX002 (ip), vehicle: saline with Tween-80",97 % of control
same,T/C,"dose: 400.0 mg/kg/injection, schedule: Q04DX002 (ip), vehicle: saline with Tween-80",97 % of control
C/C(CC(C)(C)c1ccccc1)=N/NC(N)=O,T/C,"dose: 50.0 mg/kg/injection, schedule: Q04DX003 (ip), vehicle: saline sonified",90 % of control
same,T/C,"dose: 100.0 mg/kg/injection, schedule: Q04DX003 (ip), vehicle: saline sonified",100 % of control
same,T/C,"dose: 200.0 mg/kg/injection, schedule: Q04DX003 (ip), vehicle: saline sonified",95 % of control
CC(C)OC(=S)SSC(=S)OC(C)C,T/C,"dose: 100.0 mg/kg/injection, schedule: Q01DX001 (ip), vehicle: Klucel (hydroxypropylcellulose) (HPC)",118 % of control
same,T/C,[10],104 % of control
same,T/C,"dose: 100.0 mg/kg/injection, schedule: Q04DX003 (ip), vehicle: Klucel (hydroxypropylcellulose) (HPC)",104 % of control
same,T/C,"dose: 200.0 mg/kg/injection, schedule: Q01DX001 (ip), vehicle: Klucel (hydroxypropylcellulose) (HPC)",109 % of control
same,T/C,"dose: 200.0 mg/kg/injection, schedule: Q01DX009 (ip), vehicle: Klucel (hydroxypropylcellulose) (HPC)",109 % of control
same,T/C,"dose: 200.0 mg/kg/injection, schedule: Q04DX003 (ip), vehicle: Klucel (hydroxypropylcellulose) (HPC)",118 % of control
same,T/C,"dose: 400.0 mg/kg/injection, schedule: Q01DX001 (ip), vehicle: Klucel (hydroxypropylcellulose) (HPC)",104 % of control
same,T/C,"dose: 400.0 mg/kg/injection, schedule: Q04DX003 (ip), vehicle: Klucel (hydroxypropylcellulose) (HPC)",118 % of control
OCCN(CCO)c1cc(/C=C/c2cccc3ccccc23)nc2ccccc12,T/C,"dose: 50.0 mg/kg/injection, schedule: Q01DX009 (ip), vehicle: saline + alcohol",100 % of control
same,T/C,"dose: 100.0 mg/kg/injection, schedule: Q01DX009 (ip), vehicle: saline + alcohol",100 % of control
same,T/C,"dose: 200.0 mg/kg/injection, schedule: Q01DX009 (ip), vehicle: saline + alcohol",103 % of control
